In PubChem BioAssay AID179 (DTP/NCI, 2004):
Several values for one entry are separate records, joined by “and”; a condition that tells them apart may be missing. Equal values may be shown once. Activity calls are given as the source filed them.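 The calls were made as follows: active = compounds giving half or more protection of infected cells from virus-caused growth loss, again on retest; inactive = the rest.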

Test system: CEM cells HIV-1 protection, formazan growth assay
Test: NCI AIDS Antiviral Assay
Conditions: for IC50: measured here: growth of uninfected CEM cells
Procedure: The ability of compounds to protect human CEM cells from HIV-1 infection is measured as a screen for new compounds capable of inhibiting the HIV virus. Five concentrations of drug were tested on uninfected and infected cells and cell growth was measured using a soluble formazan assay. […] Compounds that provided at least 50% protection were retested. Compounds that provided at least 50% protection on retest were listed as moderately active. Compounds that reproducibly provided 100% protection were listed as confirmed active. […] Note that the inability to provide protection could be due to toxicity.

| SMILES | EC50 [µM] | IC50 | outcome |
| --- | --- | --- | --- |
| COc1ccc(-c2c3ccccc3c(-c3ccc(OCCCCCBr)cc3)c3ccccc23)cc1 | > 2.75 | > 2.75 µM | – |
| Cc1ccc2nc(NC(=O)C(=O)C3C(=O)NC(=S)NC3=O)sc2c1 | > 692 | 417 µM | – |
| O=C(CN1CCN(C(=O)OCc2ccccc2)CCN(CC(=O)N2CCCCC2)CCN(C(=O)OCc2ccccc2)CC1)N1CCCCC1 | > 200 | 10.2 µM | – |
| CC1(C)C2CC(O)C1(C)CC2=O (configuration not stated) | > 200 | 170 µM | – |
| Cc1n[n+](Cc2ccccc2)c2sc(N)nn12 | > 200 | 40.7 µM | – |
| COc1ccc(CN2COc3c(cc(C)c4cccnc34)C2)cc1 | > 200 | 1.02 µM | – |
| Cc1cc(NCCO)nc2c1ccc1ccccc12 | > 141 | 22.4 µM | – |
| O=S(=O)(NCCSSCCNS(=O)(=O)c1ccc(F)cc1)c1ccc(F)cc1 | > 200 | 8.91 µM | – |
| COc1cc(Br)c(CCC#N)cc1OC | > 347 | 37.2 µM | – |
| CCc1cccc(C)c1NC(=O)CC1C(=O)Nc2ccccc2S1(=O)=O (configuration not stated) | > 10 | > 10 µM | – |
| COC1/C=C/OC2(C)Oc3c(C)c(O)c4c(O)c(c(/C=N/N(c5ccccc5)c5ccccc5)c(O)c4c3C2=O)NC(=O)C(C)=C/C=C/C(C)C(O)C(C)C(O)C(C)C(OC(C)=O)C1C (configuration not stated) | > 200 | 7.41 µM | – |
| Clc1ccc(C=NC23CC4CC(CC(C4)C2)C3)cc1Cl | > 200 | 95.5 µM | – |
| CC(=O)OC1OC(C2c3cccc(O)c3C(=O)c3c(O)cc(CO)cc32)C(O)C(O)C1O (configuration not stated) | > 200 | 4.07 µM and 4.17 µM | – |
| CCCCCCCCCCCCC1C(=O)NCCNCCCNCCNC1=O | > 200 | 10 µM | – |
| O=c1c(F)cn2c(=O)n1CCCCCCCn1c(=O)c(F)cn(c1=O)CCCCCCC2 | > 200 | 155 µM | – |
| CCc1cccc(C(C)(C)C)c1NC(=S)N/C=C(\c1ccccc1)S(=O)Cc1ccccc1 (configuration not stated) | 182 | > 200 µM | – |
| [Cl][Tb]([Cl])[Cl] | – | – | inactive |
| c1ccc2c(c1)[nH]c1c2nc2ccccn21 | > 1020 | > 1020 µM | inactive |
| Cc1ccc(/C=C(\C#N)C(=O)c2ccccc2)cc1 | > 145 | 102 µM | – |
| CC(C)C1=CC23CCC4C(C)(C(=O)O)CCCC4(C)C2CC1C1C(=O)N(c2ccc(N4C(=O)C5C6CC7C8(C)CCCC(C)(C(=O)O)C8CCC7(C=C6C(C)C)C5C4=O)cc2)C(=O)C13 (configuration not stated) | > 55 | 3.8 µM | – |
| CC(C)(Oc1ccc(Cl)cc1)C(=O)N(C(=O)N1CCCCC1)c1ccccc1 | > 200 | 13.2 µM | – |
| COC(=O)c1ccccc1C1CN=NC12Cc1cc3c(cc1C2=O)CCC3 (configuration not stated) | – | – | inactive |

| SMILES | EC50 [µM] | IC50 | outcome |
| --- | --- | --- | --- |
| O=C1C/C(Br)=C\c2ccccc2-c2ccccc21 | > 1.12 | 0.389 µM | – |
| COc1ccc(N=NC(=O)NC(CC(C)C)C(=O)NC(CC(C)C)C(=O)O)cc1 (configuration not stated) | > 200 | 7.24 µM | – |
| COC(=O)C1CC(F)(F)[C@H]1n1cnc2c(N)ncnc21 (some centres not stated) | > 240 | > 240 µM | – |
| S=C(NCc1ccccc1)N/N=C/c1ccccn1 | > 20 | 0.141 µM | – |
| O=S(=O)(O)c1ccc2c(N=NNc3ccc(NN=Nc4cccc5cc(S(=O)(=O)O)ccc45)cc3)cccc2c1 | > 759 | 457 µM | – |
| CC1CCC2(CC1)N=C1CCC(C)CC1C1(CCC(C)CC1)N2 (configuration not stated) | > 200 | 97.7 µM | – |
| NC(C/C=C/P(=O)(O)O)C(=O)O (configuration not stated) | > 200 | 155 µM | – |
| COc1cccc(-c2nnc(N)o2)c1 | – | – | inactive |
| COC1(OC)CC2C(=O)N(Cc3ccccc3)C1C(S(=O)(=O)c1ccccc1)C2S(=O)(=O)c1ccccc1 (configuration not stated) | – | – | inactive |
| CC1CN=C(NS(=O)(=O)c2cc(C(=O)Nc3ccccc3)c(Cl)cc2S)NN1 (configuration not stated) | > 200 | 19.1 µM | – |
| Cc1cccc2c1Oc1cc(Cl)ccc1C2NC(=O)CN(C)C (configuration not stated) | > 77.6 | 72.4 µM | – |
| COC(=O)c1cc(C(=O)OC)c(C/C(=N/NC(N)=S)C(=O)Nc2c(C)cccc2C)nc1CC(=Nc1c(C)cccc1C)NNC(N)=S | > 200 | > 200 µM | – |
| COc1ccc2c3c(c(C(=O)O)oc13)C(CCC(=O)O)CC2 (configuration not stated) | – | – | inactive |
| C[C@@H](O)CCC(=O)c1ccoc1 | > 1480 | > 1480 µM | – |
| COC(=O)C1CC23CC1(OC(C)=O)CCC2c1ccc(OC)cc1C3=O (configuration not stated) | > 61.7 | > 61.7 µM | – |
| O=[N+]([O-])c1ccc(Nc2ccccc2)c2nonc12 | > 87.1 | 41.7 µM | – |
| O=C1C[C@@]23CCC4(CC2=CCC[C@H]3O1)OCCO4 | – | – | inactive |
| O=C1CS(=O)(=O)CN1N1CS(=O)(=O)CC1=O | > 200 | 110 µM | – |
| O=[N+]([O-])c1ccc(N/N=C/c2ccc(OCCCCCCCCCCCO)cc2)c([N+](=O)[O-])c1 | > 200 | 42.7 µM | – |
| O=C(CNc1nncs1)NO | > 1450 | 162 µM | – |
| CC1(C)CC(=O)/C(=C/C2CCNC2=S)C(=O)N1 (configuration not stated) | > 501 | > 501 µM | – |
| CCOC(=O)c1c(-c2cc(OC)c(OC)c(OC)c2)csc1NC(=O)c1ccccc1 | > 200 | 12.6 µM | – |

| SMILES | EC50 [µM] | IC50 | outcome |
| --- | --- | --- | --- |
| O=C(N=Nc1cc(Cl)ccc1Cl)NNc1cc(Cl)ccc1Cl | > 200 | 11.2 µM | – |
| COc1ccc(N=Nc2c(-c3ccccc3)nn(C(=O)CC(=O)Nc3ccc(OC)cc3)c2-c2ccccc2)cc1 | > 25.1 | > 25.1 µM | – |
| CCOC(=O)C(=O)Nc1nc2ccc(C)cc2s1 | – | – | inactive |
| COC(=O)c1cc(C)ccc1C1CN=NC12Cc1ccc(C)cc1C2=O (configuration not stated) | 145 | 182 µM | – |
| NC1CCC(N(CC(=O)O)CC(=O)O)C(N(CC(=O)O)CC(=O)O)C1 (configuration not stated) | > 200 | 112 µM | – |
| O=C1Nc2ccc(Cl)cc2C(=O)N2CCC[C@@H]12 | > 200 | > 200 µM | – |
| CC(C)N(C(=O)C12C3C4C1C1C2C3C41C(=O)C(C)(C)C)C(C)C (configuration not stated) | > 158 | 138 µM | – |
| CC(=O)/C=C/c1ccc(C2CC(C)=Nc3c(ccc4c3C(=O)c3ccccc3C4=O)N2)cc1 (configuration not stated) | > 6.31 | > 6.31 µM | – |
| OCC(Cn1cncn1)(c1ccc(F)cc1F)n1cncn1 (configuration not stated) | > 200 | > 200 µM | – |
| NC(N)=NS(=O)(=O)c1ccc(Nc2c3ccccc3nc3ccc(C(=O)Nc4ccc(S(N)(=O)=O)cc4)cc23)cc1 | > 200 | > 200 µM | – |
| CCN(CC)C(=O)C(C)=O | > 1740 | > 1740 µM | – |
| N#Cc1c(N2CCN(c3ccc([N+](=O)[O-])cc3)CC2)[n+](=O)c2ccc(Cl)cc2n1[O-] | > 20 | 0.631 µM | – |
| CC(Cc1ccccc1)NC(=O)CCNNC(=O)c1ccncc1 (configuration not stated) | > 200 | > 200 µM | – |
| Cc1cc(O)c2c(c1)C(=O)C(c1c(C)cc3c(c1O)C(=O)C1OC1C3=O)=CC2=O (configuration not stated) | > 174 | 0.0933 µM | – |
| COc1cccc(C=O)c1[O-].COc1cccc(C=O)c1[O-].[Zn+2] | > 676 | 21.9 µM | – |
| O=C1C=CC(=O)C2C1Cc1ccccc1C2c1ccccc1 (configuration not stated) | – | – | inactive |
| Cc1ccc([N+](=O)[O-])cc1N=NC(=O)NNc1cc([N+](=O)[O-])ccc1C | > 200 | 32.4 µM | – |
| CC(C)CCCC(C)C1CCC2C3CC[C@H]4C[C@H](NC(=O)C=C(c5cc(Cl)c(O)c(C(=O)O)c5)c5cc(Cl)c(O)c(C(=O)O)c5)CC[C@]4(C)C3CC[C@]12C (some centres not stated) | > 100 | 26.3 µM | – |
| Clc1ccc(CN2COc3c(ccc4cccnc34)C2)cc1Cl | > 200 | 1.29 µM | – |
| Clc1ccc(Cl)c(-c2csc(-c3cccnc3)n2)c1 | > 200 | 36.3 µM | – |
| C/C=C(\C)C(=O)c1c(O)cc(O)c2ccc(=O)oc12 | > 200 | 112 µM | – |
| Cc1c(CCN=P(c2ccccc2)(c2ccccc2)c2ccccc2)c(=O)n2c([nH]c3ccccc32)c1C#N | > 200 | 31.6 µM | – |

| SMILES | EC50 [µM] | IC50 | outcome |
| --- | --- | --- | --- |
| N#CC(NNC(=O)c1ccccc1O)c1ccccc1O (configuration not stated) | > 91.2 | 1.58 µM | – |
| c1ccc2c(c1)N=C(c1ccc3ccccc3c1)CC(c1cccc3ccccc13)S2 (configuration not stated) | > 2.51 | > 2.51 µM | – |
| COc1cc(/C=C2\CC/C(=C\c3cc(OC)c(O)c(OC)c3)C2=O)cc(OC)c1O | > 200 | 1.02 µM | – |
| COc1ccc(-c2nc(Nc3ccccc3)sc2Cc2sc(Nc3ccccc3)nc2-c2ccc(OC)cc2)cc1 | – | – | inactive |
| CCOC(=O)COc1cccc2c1C(=O)CCO2 | – | – | inactive |
| O=C(Nc1ccc(/C=C/c2ccc(NC(=O)c3ccc(O)cc3O)cc2S(=O)(=O)O)c(S(=O)(=O)O)c1)c1ccc(O)cc1O | > 151 | 126 µM | – |
| CCn1ncc2c(=O)n3ncn(-c4ccc(Br)cc4)c3nc21 | – | – | inactive |
| c1csc(-c2cc(-c3ccsc3)c(-c3cccs3)s2)c1 | > 200 | 107 µM | – |
| COC(=O)CCC(=O)Nc1cc(C)ccc1C | > 1070 | > 1070 µM | – |
| CC1CC(c2ccc(Cl)c(Cl)c2)=Nc2ccccc2S1 (configuration not stated) | > 6.17 | > 6.17 µM | – |
| CN1CCCC1=NC#N | > 200 | > 200 µM | – |
| O=S(=O)(c1ccccc1)c1nccs1 | 110 | 575 µM | – |
| N#CC(C#N)=Cc1c(O)ccc2ccccc12 | > 200 | 9.77 µM | – |
| CNC(=O)c1ccc(NC(=O)Nc2cccc(C3=NCCN3)c2)cc1NC(=O)Nc1cccc(C2=NCCN2)c1 | 28.2 | 178 µM | – |
| CCC(=O)N=c1sc(SCc2ccccc2)nn1C(=O)SC (tested in a mixture with another compound) | > 200 | 10.7 µM | – |
| COC(=O)C1=C(O)C(O)=C(C(=O)OC)C1 | 407 | 955 µM | – |
| O=C(/C(=C/c1ccc(F)cc1)c1ccccc1)c1ccccc1 | > 6.61 | > 6.61 µM | – |
| O=C(O)c1c(F)c(F)c(S)c(F)c1F | 17.8 | > 200 µM | – |
| COP1(=S)OCC(C(C)(C)C)CO1 (configuration not stated) | > 57.5 | > 57.5 µM | – |
| Cc1ccc(-n2c(=S)[nH]c3ccc(Br)cc3c2=O)cc1 | > 269 | 89.1 µM | – |
